Results taken from patent US20160143913A1, “COMBINATION” (Novartis AG, priority 2009, published 2016).

How the values were obtained:
MDA-MB-175-VII = test: Cell growth inhibition assay (Cell Titer Glo), MDA-MB-175-VII; assay type: cell-based, Human; conditions: Homo sapiens, 72 h; MDA-MB-175-VII breast; KRAS/RAF WT; PIK3CA/PTEN WT; single agent, 3 days, mean ± std
Source text: (§1) Human breast tumor line, MDA-MB-175-VII, human colon tumor lines, Colo-205, DLD-1, HCT-8, HT-29, LS-1034, NCI-H508, RKO, SW1417, SW1463, SW480, SW837 and T84, and human lung tumor lines, A427, A549, Calu 3, Calu 6, HCC827, NCI-H1155, NCI-H1355, NCI-H1792, NCI-H23, NCI-H727, SW1573 and SW900 were from ATCC. Human breast tumor line EFM-19 was from German Collection of Microorganisms and Cell Cultures. Human lung tumor line COR-L23 was from European Collection of Cell Cultures (UK). Human colon tumor line KM12 and human lung tumor line Hop62 were from National Cancer Institute. MV522 was from University of California at San Diego. All lines were cultured in RPMI 1640 medium containing 10% fetal bovine serum (FBS).
(§2) All cells were cultured for a minimum of 72 hours prior to cell plating. Cells were assayed in a 96-well tissue culture plate (NUNC 136102) of RPMI medium containing 10% FBS for all cells at 1,000 cells per well. […] ATP levels were determined by adding Cell Titer Glo® (Promega) according to the manufacturer's protocol. Briefly, Cell Titer Glo® was added each plate, incubated for 30 minutes then luminescent signal was read on the SpectraMax L plate reader with a 0.5 sec integration time.
(§3) Inhibition of cell growth was estimated after treatment with compound or combination of compounds for three days and comparing the signal to cells treated with vehicle (DMSO). Cell growth was calculated relative to vehicle (DMSO) treated control wells. […]
(§4) Combination effects on potency were evaluated using Combination Index (CI) which was calculated with the back-interpolated IC50 values and the mutually non-exclusive equation derived by Chou and Talalay (1): […]
(§5) The combination effects on the response scale were quantified by Excess Over Highest Single Agent (EOHSA) based on the concept of nonlinear blending as described in detail by Peterson and Novick (2007) and Peterson (2010) [(2;3) [Peterson and Novick, 2007; Peterson, 2010]. […]

RKO = test: Cell growth inhibition assay (Cell Titer Glo), RKO; assay type: cell-based; conditions: Homo sapiens, 72 h; RKO colon; BRAF_V600E; PIK3CA_H1047R; single agent, 3 days, mean ± std
Source text: as §1
as §2, with “plating.” for “plating. Cells were assayed in a 96-well tissue culture plate (NUNC 136102) of RPMI medium containing 10% FBS for all cells at 1,000 cells per well.”
as §3

DLD1 = test: Cell growth inhibition assay (Cell Titer Glo), DLD1; assay type: cell-based; conditions: Homo sapiens, DLD-1, 72 h; DLD1 colon; KRAS_G13D; PIK3CA_E545K; single agent, 3 days, mean ± std
Source text: as §1
as §2, with “plating.” for “plating. Cells were assayed in a 96-well tissue culture plate (NUNC 136102) of RPMI medium containing 10% FBS for all cells at 1,000 cells per well.”
as §3

T84 = test: Cell growth inhibition assay (Cell Titer Glo), T84; assay type: cell-based; conditions: Homo sapiens, 72 h; T84 colon; KRAS_G13D; PrK3CA_E542K; single agent, 3 days, mean ± std
Source text: as §1
as §2, with “plating.” for “plating. Cells were assayed in a 96-well tissue culture plate (NUNC 136102) of RPMI medium containing 10% FBS for all cells at 1,000 cells per well.”
as §3

KM12 = test: Cell growth inhibition assay (Cell Titer Glo), KM12; assay type: cell-based; conditions: Homo sapiens, 72 h; KM12 colon; KRAS/RAF WT; PTEN_K267*; single agent, 3 days, mean ± std
Source text: as §1
as §2, with “plating.” for “plating. Cells were assayed in a 96-well tissue culture plate (NUNC 136102) of RPMI medium containing 10% FBS for all cells at 1,000 cells per well.”
as §3

SW837 = test: Cell growth inhibition assay (Cell Titer Glo), SW837; assay type: cell-based; conditions: Homo sapiens, 72 h; SW837 colon; KRAS_G12C; PIK3CA/PTEN WT; single agent, 3 days, mean ± std
Source text: as §1
as §2, with “plating.” for “plating. Cells were assayed in a 96-well tissue culture plate (NUNC 136102) of RPMI medium containing 10% FBS for all cells at 1,000 cells per well.”
as §3

LS-1034 = test: Cell growth inhibition assay (Cell Titer Glo), LS-1034; assay type: cell-based; conditions: Homo sapiens, 72 h; LS-1034 colon; KRAS_A146T; PIK3CA/PTEN WT; single agent, 3 days, mean ± std
Source text: as §1
as §2, with “plating.” for “plating. Cells were assayed in a 96-well tissue culture plate (NUNC 136102) of RPMI medium containing 10% FBS for all cells at 1,000 cells per well.”
as §3

Colo-205 = test: Cell growth inhibition assay (Cell Titer Glo), Colo-205; assay type: cell-based; conditions: Homo sapiens, 72 h; Colo-205 colon; BRAF_V600E; PIK3CA/PTEN WT; single agent, 3 days, mean ± std
Source text: as §1
as §2, with “plating.” for “plating. Cells were assayed in a 96-well tissue culture plate (NUNC 136102) of RPMI medium containing 10% FBS for all cells at 1,000 cells per well.”
as §3

SW1463 = test: Cell growth inhibition assay (Cell Titer Glo), SW1463; assay type: cell-based; conditions: Homo sapiens, 72 h; SW1463 colon; KRAS_G12C; PIK3CA/PTEN WT; single agent, 3 days, mean ± std
Source text: as §1
as §2, with “plating.” for “plating. Cells were assayed in a 96-well tissue culture plate (NUNC 136102) of RPMI medium containing 10% FBS for all cells at 1,000 cells per well.”
as §3

SW480 = test: Cell growth inhibition assay (Cell Titer Glo), SW480; assay type: cell-based; conditions: Homo sapiens, 72 h; SW480 colon; PIK3CA/PTEN WT; single agent, 3 days, mean ± std
Source text: as §1
as §2, with “plating.” for “plating. Cells were assayed in a 96-well tissue culture plate (NUNC 136102) of RPMI medium containing 10% FBS for all cells at 1,000 cells per well.”
as §3

SW1417 = test: Cell growth inhibition assay (Cell Titer Glo), SW1417; assay type: cell-based; conditions: Homo sapiens, 72 h; SW1417 colon; BRAF_V600E; PIK3CA/PTEN WT; single agent, 3 days, mean ± std
Source text: as §1
as §2, with “plating.” for “plating. Cells were assayed in a 96-well tissue culture plate (NUNC 136102) of RPMI medium containing 10% FBS for all cells at 1,000 cells per well.”
as §3

COR-L23 = test: Cell growth inhibition assay (Cell Titer Glo), COR-L23; assay type: cell-based; conditions: Homo sapiens, 72 h; COR-L23 lung; KRAS_G12V; PIK3CA/PTEN WT; single agent, 3 days, mean ± std
Source text: as §1
as §2, with “plating.” for “plating. Cells were assayed in a 96-well tissue culture plate (NUNC 136102) of RPMI medium containing 10% FBS for all cells at 1,000 cells per well.”
as §3

NCI-H1355 = test: Cell growth inhibition assay (Cell Titer Glo), NCI-H1355; assay type: cell-based; conditions: Homo sapiens, 72 h; NCI-H1355 lung; KRAS_G13C; PIK3CA/PTEN WT; single agent, 3 days, mean ± std
Source text: as §1
as §2, with “plating.” for “plating. Cells were assayed in a 96-well tissue culture plate (NUNC 136102) of RPMI medium containing 10% FBS for all cells at 1,000 cells per well.”
as §3

NCI-H1792 = test: Cell growth inhibition assay (Cell Titer Glo), NCI-H1792; assay type: cell-based; conditions: Homo sapiens, 72 h; NCI-H1792 lung; KRAS_G12C; PIK3CA/PTEN WT; single agent, 3 days, mean ± std
Source text: as §1
as §2, with “plating.” for “plating. Cells were assayed in a 96-well tissue culture plate (NUNC 136102) of RPMI medium containing 10% FBS for all cells at 1,000 cells per well.”
as §3

NCI-H23 = test: Cell growth inhibition assay (Cell Titer Glo), NCI-H23; assay type: cell-based; conditions: Homo sapiens, 72 h; NCI-H23 lung; KRAS_G12C; PIK3CA/PTEN WT; single agent, 3 days, mean ± std
Source text: as §1
as §2, with “plating.” for “plating. Cells were assayed in a 96-well tissue culture plate (NUNC 136102) of RPMI medium containing 10% FBS for all cells at 1,000 cells per well.”
as §3

Calu6 = test: Cell growth inhibition assay (Cell Titer Glo), Calu6; assay type: cell-based; conditions: Homo sapiens, Calu-6, 72 h; Calu6 lung; KRAS_Q61K; PIK3CA/PTEN WT; single agent, 3 days, mean ± std
Source text: as §1
as §2, with “plating.” for “plating. Cells were assayed in a 96-well tissue culture plate (NUNC 136102) of RPMI medium containing 10% FBS for all cells at 1,000 cells per well.”
as §3

SW1573 = test: Cell growth inhibition assay (Cell Titer Glo), SW1573; assay type: cell-based; conditions: Homo sapiens, 72 h; SW1573 lung; KRAS_G12C; PIK3CA_K111E; single agent, 3 days, mean ± std
Source text: as §1
as §2, with “plating.” for “plating. Cells were assayed in a 96-well tissue culture plate (NUNC 136102) of RPMI medium containing 10% FBS for all cells at 1,000 cells per well.”
as §3

HOP62 = test: Cell growth inhibition assay (Cell Titer Glo), HOP62; assay type: cell-based; conditions: Homo sapiens, HOP-62, 72 h; HOP62 lung; KRAS_G12C; PIK3CA/PTEN WT; single agent, 3 days, mean ± std
Source text: as §1
as §2, with “plating.” for “plating. Cells were assayed in a 96-well tissue culture plate (NUNC 136102) of RPMI medium containing 10% FBS for all cells at 1,000 cells per well.”
as §3

SW900 = test: Cell growth inhibition assay (Cell Titer Glo), SW900; assay type: cell-based; conditions: Homo sapiens, 72 h; SW900 lung; KRAS_G12V; PIK3CA/PTEN WT; single agent, 3 days, mean ± std
Source text: as §1
as §2, with “plating.” for “plating. Cells were assayed in a 96-well tissue culture plate (NUNC 136102) of RPMI medium containing 10% FBS for all cells at 1,000 cells per well.”
as §3

A427 = test: Cell growth inhibition assay (Cell Titer Glo), A427; assay type: cell-based; conditions: Homo sapiens, A-427, 72 h; A427 lung; KRAS_G12D; PIK3CA/PTEN WT; single agent, 3 days, mean ± std
Source text: as §1
as §2, with “plating.” for “plating. Cells were assayed in a 96-well tissue culture plate (NUNC 136102) of RPMI medium containing 10% FBS for all cells at 1,000 cells per well.”
as §3

HCC827 = test: Cell growth inhibition assay (Cell Titer Glo), HCC827; assay type: cell-based; conditions: Homo sapiens, 72 h; HCC827 lung; KRAS/RAF WT; PIK3CA/PTEN WT; EGFR E746_A750 deletion mutation; single agent, 3 days, mean ± std
Source text: as §1
as §2, with “plating.” for “plating. Cells were assayed in a 96-well tissue culture plate (NUNC 136102) of RPMI medium containing 10% FBS for all cells at 1,000 cells per well.”
as §3

CaLu3 = test: Cell growth inhibition assay (Cell Titer Glo), CaLu3; assay type: cell-based; conditions: Homo sapiens, Calu-3, 72 h; CaLu3 lung; KRAS/RAF WT; PIK3CA/PTEN WT; HER2+; single agent, 3 days, mean ± std
Source text: as §1
as §2, with “plating.” for “plating. Cells were assayed in a 96-well tissue culture plate (NUNC 136102) of RPMI medium containing 10% FBS for all cells at 1,000 cells per well.”
as §3

human colon tumor lines = test: Cell growth inhibition assay, colon lines; assay type: cell-based; conditions: a subset of these colon cell lines (modest sensitivity), range over the lines, read-out: IC50 values, single agent
Source text: as §1, §2, §3, §4, §5

human lung tumor lines = test: Cell growth inhibition assay, lung tumor lines; assay type: cell-based; conditions: COR-L23, A549, NCI-H1355, NCI-H1792, NCI-H23, Calu 6 and MV522, range over the lines, read-out: IC50s, single agent
Source text: as §1
as §2, with “plating.” for “plating. Cells were assayed in a 96-well tissue culture plate (NUNC 136102) of RPMI medium containing 10% FBS for all cells at 1,000 cells per well.”
as §3

IC50 (MDA-MB-175-VII): < 1 µM
IC50 (DLD1): > 10 µM
IC50 (SW837): > 10 µM
IC50 (Colo-205): 2.57 ± 0.137 µM
IC50 (SW1463): 9.72 ± 0.139 µM
IC50 (SW480): > 10 µM
IC50 (SW1417): > 10 µM
IC50 (NCI-H1355): 6.69 ± 3.49 µM
IC50 (NCI-H1792): 7.31 ± 2.87 µM
IC50 (NCI-H23): 7.12 ± 3.8 µM
IC50 (Calu6): 2.15 ± 0.89 µM
IC50 (SW1573): > 8 µM
IC50 (SW900): > 10 µM
IC50 (HCC827): > 8 µM
IC50 (CaLu3): > 8 µM
IC50 (human colon tumor lines): 0.5 to 5 µM
IC50 (human lung tumor lines): 2 to 7 µM
Compound: Cn1ncc(Cl)c1-c1cc(C(=O)N[C@H](CN)Cc2cccc(F)c2)sc1Cl [Compound B, N-{(1S)-2-amino-1-[(3-fluorophenyl)methyl]ethyl}-5-chloro-4-(4-chloro-1-methyl-1H-pyrazol-5-yl)-2-thiophenecarboxamide]
IC50 (RKO): 1.81 ± 0.674 µM
IC50 (T84): > 10 µM
IC50 (KM12): 2.25 ± 1.18 µM
IC50 (LS-1034): 4.34 ± 1.77 µM
IC50 (COR-L23): 5.37 ± 3.52 µM
IC50 (HOP62): > 10 µM
IC50 (A427): > 8 µM
